Experimental data: patent publication US9217743B2, “Screening method utilizing thalidomide-targeting factor” (Tokyo Institute of Technology, priority 2009, dated 2015)
Entries after “also recorded” stand apart in the source; their conditions may differ.

What was measured:
[1] = test system: multiple myeloma cell Kms12; experiment: Growth inhibition of multiple myeloma cells, Cell Count-Reagent SF; assay type: cell-based, human; details: 48 hours, 37° C., 5% CO2
Protocol: KMS-12 cells were incubated with thalidomide or 5HPP-33 (100 μM) for 48 hours at 37° C. in 5% CO2. For measurement of the number of the living cells, Cell Count-Reagent SF (Nacalai Tesque, Inc.) was added to culture media for 2 hours at the end of the 48 hours culture. The absorbance at 450 nm was measured.
Multiple myeloma cell Kms12 were cultured in RPMI Medium 1640 containing 10% FBS. For treatment with drugs, the medium was adjusted to contain 2×10^5 Kms12 cells/ml and dispensed in 2 ml Eppendorf tubes in 2 ml aliquots. As the stock solution, thalidomide or 5HPP-33 were dissolved in dimethylsulfoxide (DMSO) at concentration of 100 mM and […] respectively. The stock solution was added to the cell suspension at 2 μl/2 ml, followed by gentle and thorough inversion mixing. Cell mixture was dispensed in a 96 well plate at 100 μl/well and cultured at 37° C. and 5% CO2 for 48 hours. For measurement of the number of the living cells, Cell Count-Reagent SF (Nacalai Tesque, Inc.) was added to culture media and incubated for 2 hours. The absorbance at 450 nm, which is correlate to the number, were measured by GloMax-Multi+ Detection System (Promega KK) For preparation of a calibration curve, 1×10^6, 3×10^5 and 1×10^5 Kms12 cells/ml were used. Defining the number of cells treated with the solvent as 100, the number of cells treated with the drugs were expressed as relative values.

CRBN = CRBN (Homo sapiens, UniProt Q96SW2); experiment: Elution of CRBN from thalidomide-immobilized beads by test compound, Western blotting; details: for CRBN eluted from thalidomide-immobilized beads by the compound: 293T cell extracts, buffer containing 0.1 to 1 mM compound, one hour, Western blotting; for bindability with CRBN: concluded from elution from thalidomide-immobilized beads
Protocol: Firstly, thalidomide-immobilized FG beads are prepared. The immobilized beads are mixed and incubated with extracts of CRBN-expressing cells or recombinant proteins for one hour or longer in a rotator at 5 rpm and 4° C. Then, after the beads are washed with a buffer, for example, a buffer containing a thalidomide derivative as a test substance is passed through the beads to see whether CRBN is eluted. Examples of a detection method include Western blotting, dot blotting, CBB staining, and silver staining.

DDB1 = experiment: Elution of DDB1 from thalidomide-immobilized beads by test compound, Western blotting; details: Example 6; 293T extracts; elution with 1 mM compound
zebrafish embryos = experiment: Zebrafish embryo development, pectoral fins and otic vesicles; assay type: in vivo, zebrafish (Danio rerio); details: for fin and otic vesicle development: AMO injected into one cell stage embryos
fgf8a = experiment: Whole-mount in situ hybridization of zebrafish fin buds; assay type: in vivo; details: AMO injected embryos
Text: (§1) To obtain a clue to the pathway(s) downstream of CRBN and thalidomide, the present inventors analyzed well-known key molecules in fin development. Sonic hedgehog (Shh) is expressed in the zone of polarizing activity (ZPA) and is responsible for anteroposterior patterning of the limb and fin (Cited Literature 27), whereas Fgf8 is expressed in the apical ectodermal ridge (AER) of the limb and fin and is necessary for outgrowth of the limb and fin along the proximodistal axis. […] Thus, an inhibitor of FGF8 production is a possible downstream target of thalidomide and the CRBN-containing E3 complex.
(§2) This assay was carried out in accordance with Cited Literature 41. Antisense probe for zcrbn mRNA was directed against the 5′-coding region of 513 bp. Antisense probe for zcul4a was directed against the 3′ untranslated region (3′ UTR) of 590 bp. Probes for shh and fgf8 were kindly provided by Dr. Krauss and Dr. Thisse, respectively. To increase permeability of probes, fixed embryos were incubated with PBS containing 0.1% Tween-20 and […] proteinase K for two minutes at room temperature.

shh = experiment: as above; assay type: in vivo; details: AMO injected embryos
Text: as §1, §2

Sequence of CRBN (Q96SW2 whole entry): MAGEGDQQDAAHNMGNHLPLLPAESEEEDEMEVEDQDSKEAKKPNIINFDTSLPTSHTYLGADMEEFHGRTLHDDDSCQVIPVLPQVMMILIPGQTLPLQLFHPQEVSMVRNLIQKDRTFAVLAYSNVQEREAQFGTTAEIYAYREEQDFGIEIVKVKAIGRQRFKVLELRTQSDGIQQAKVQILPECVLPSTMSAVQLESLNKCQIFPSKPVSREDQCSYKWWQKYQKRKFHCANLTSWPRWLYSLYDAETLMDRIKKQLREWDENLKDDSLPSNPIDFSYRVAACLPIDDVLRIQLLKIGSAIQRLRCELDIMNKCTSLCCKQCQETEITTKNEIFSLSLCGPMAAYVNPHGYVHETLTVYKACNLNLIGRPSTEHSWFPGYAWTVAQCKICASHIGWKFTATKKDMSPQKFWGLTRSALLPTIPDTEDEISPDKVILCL

In the case of `CC(C)c1cccc(C(C)C)c1N1C(=O)c2ccc(O)cc2C1=O` [5HPP-33], the “proliferation of the multiple myeloma cell Kms12” value [1] is reported as “potent suppressive action; also recorded: potently suppressed; also recorded: growth inhibition”, the “CRBN eluted from thalidomide-immobilized beads by the compound” value (CRBN) is reported as “very little CRBN was eluted; also recorded: not eluted” and the “bindability with CRBN” value (CRBN) is reported as “low bindability and low and extremely low bindability”.
With `O=C1NC(=O)c2ccccc21` [phthalimide] the “DDB1 in the eluate fraction” value (DDB1) was “not detected”, the “CRBN eluted from thalidomide-immobilized beads by the compound” value (CRBN) was “very little CRBN was eluted; also recorded: not eluted” and the “CRBN in the eluate fraction” value (CRBN; Example 6, 293T extracts, elution with 1 mM compound) was “not detected”. The “bindability with CRBN” value (CRBN) was “low bindability”.
In the case of “zcrbn-AMO: antisense morpholino oligo for zcrbn, 5′-AGAGCTGTAGCTGGTTCCCCATTTC-3′ (SEQ ID NO: 5) (all phosphorodiamidate morpholino (PMO))”, the “fin and otic vesicle development” value (zebrafish embryos) is reported as “exhibited defects”, the “reduction of the size of otic vesicles compared to wild type” value (zebrafish embryos; AMO-injected embryos at 27 hpf) is reported as 40% and the fgf8a expression (fgf8a) is reported as “reduced”. For the same compound, the shh expression (shh) was “no difference”.
For “zcul4a AMO: antisense morpholino oligo for zcul4a, 5′-CTGGTGCTGAACATCTTCTGCCATC-3′ (SEQ ID NO: 6) (all phosphorodiamidate morpholino (PMO))”, the “fin and otic vesicle development” value (zebrafish embryos) was “caused defects”, the “size of otic vesicles, of the control size” value (zebrafish embryos; knockdown embryos at 27 hpf) was 40% and the fgf8a expression (fgf8a) was “reduced”. For the same compound, the shh expression (shh) was “no difference”.
